# Measured values reported in patent US9018248B2, “Fatty acid derivatives of catechins and methods of their use” (Genesis Group Inc., priority 2010, dated 2015).
# Test: Reducing power (Fe3+-Fe2+ transformation)
# Settings: test compounds 1 mM in 95% ethanol, ascorbic acid equivalents
# Protocol: An ORAC (Oxygen Radical Absorbance Capacity) assay was carried out using a Fluostar Optima plate reader (BMG Labtech, Durham, N.C.) equipped with an incubator and two injector pumps. A modified method for lipophilic antioxidants was followed, in which randomly methylated cyclodextrin (RMCD) was used as water solubility enhancer, as described by Huang et al, J. Agric. Food Chem., 2002, 50, 1815-1821. Trolox standards (6.25-50 μM) and samples (0.25 μM) were dissolved in acetone/water (1:1, v/v) containing 7% RMCD. Fluorescein and […] [2,2′-azobis(2-aminopropane)dihydrochloride] were used as the probe and radical generator, respectively. […] Fluorescence was measured at an excitation wavelength of 485 nm and emission of 520 nm. […] (3b) Reducing Power The reducing power of EGCG and its derivatives (compounds 1a-1c) was determined according to Oyaizu (1986). […] The content was mixed well and the absorbance was recorded at 700 nm. Higher absorbance of the reaction mixture indicates greater reducing power. […] (3c) Metal Chelation The metal chelation capacity was measured following a procedure by Decker E. A. et al., J. Agric. […] The absorbance was measured afterwards at 562 nm. A blank without ferrozine was run for each compound, since the antioxidant-Fe^2+ complex gives a colour that might interfere with the absorbance reading. […] The spectrum was recorded after 1 min. […]
smiles,measurement,value
"O=C(O[C@@H]1Cc2c(O)cc(O)cc2O[C@@H]1c1cc(O)c(O)c(O)c1)c1cc(O)c(O)c(O)c1 [EGCG, Epigallocatechin gallate, reference compound]",Reducing power relative to ascorbic acid,highest reducing power
